NS(=O)(=O)c1ccccc1
Details | solubility (mole fraction)
in acetone, 273.15 K | 0.117
in acetone, 279.15 K | 0.123
in acetone, 283.45 K | 0.13
in acetone, 288.95 K | 0.138
in acetone, 293.25 K | 0.145
in acetone, 298.85 K | 0.156
in acetone, 303.15 K | 0.165
in acetone, 308.15 K | 0.176
in acetone, 313.15 K | 0.188
in acetone, 317.65 K | 0.201
in acetone, 323.15 K | 0.217
in acetonitrile, 273.15 K | 0.0348
in acetonitrile, 279.15 K | 0.0396
in acetonitrile, 283.45 K | 0.0446
in acetonitrile, 288.95 K | 0.0507
in acetonitrile, 293.25 K | 0.0568
in acetonitrile, 298.85 K | 0.0649
in acetonitrile, 303.15 K | 0.0723
in acetonitrile, 308.15 K | 0.0817
in acetonitrile, 313.15 K | 0.0928
in acetonitrile, 317.65 K | 0.104
in acetonitrile, 323.15 K | 0.118
in cyclohexanone, 273.15 K | 0.114
in cyclohexanone, 279.15 K | 0.12
in cyclohexanone, 283.85 K | 0.126
in cyclohexanone, 289.15 K | 0.134
in cyclohexanone, 293.75 K | 0.142
in cyclohexanone, 299.15 K | 0.151
in cyclohexanone, 303.75 K | 0.161
in cyclohexanone, 309.15 K | 0.171
in cyclohexanone, 313.35 K | 0.181
in cyclohexanone, 319.15 K | 0.195
in cyclohexanone, 324.45 K | 0.21
in cyclopentanone, 273.15 K | 0.14
in cyclopentanone, 279.15 K | 0.146
in cyclopentanone, 283.85 K | 0.152
in cyclopentanone, 289.15 K | 0.16
in cyclopentanone, 293.75 K | 0.167
in cyclopentanone, 299.15 K | 0.177
in cyclopentanone, 303.75 K | 0.187
in cyclopentanone, 309.15 K | 0.201
in cyclopentanone, 313.35 K | 0.21
in cyclopentanone, 319.15 K | 0.228
in cyclopentanone, 324.45 K | 0.245
in dichloromethane, 273.15 K | 0.00134
in dichloromethane, 279.15 K | 0.00175
in dichloromethane, 283.45 K | 0.00214
in dichloromethane, 288.95 K | 0.00278
in dichloromethane, 293.25 K | 0.00335
in dichloromethane, 298.85 K | 0.00424
in dichloromethane, 303.15 K | 0.00495
in dichloromethane, 308.15 K | 0.00602
in dichloromethane, 312.15 K | 0.00691
in ethanol, 273.15 K | 0.0159
in ethanol, 279.15 K | 0.0182
in ethanol, 283.45 K | 0.0199
in ethanol, 288.95 K | 0.0231
in ethanol, 293.25 K | 0.0261
in ethanol, 298.85 K | 0.0307
in ethanol, 303.15 K | 0.0355
in ethanol, 308.15 K | 0.041
in ethanol, 313.15 K | 0.048
in ethanol, 317.65 K | 0.0547
in ethanol, 323.15 K | 0.0635
in ethyl acetate, 273.15 K | 0.0325
in ethyl acetate, 279.15 K | 0.036
in ethyl acetate, 283.45 K | 0.0389
in ethyl acetate, 288.95 K | 0.0429
in ethyl acetate, 293.25 K | 0.0467
in ethyl acetate, 298.85 K | 0.0517
in ethyl acetate, 303.15 K | 0.0563
in ethyl acetate, 308.15 K | 0.0615
in ethyl acetate, 313.15 K | 0.0682
in ethyl acetate, 317.65 K | 0.0736
in ethyl acetate, 323.15 K | 0.082
in ethyl formate, 273.15 K | 0.018
in ethyl formate, 279.15 K | 0.0204
in ethyl formate, 283.45 K | 0.0228
in ethyl formate, 288.95 K | 0.026
in ethyl formate, 293.25 K | 0.0289
in ethyl formate, 298.85 K | 0.0327
in ethyl formate, 303.15 K | 0.0367
in ethyl formate, 308.15 K | 0.0416
in ethyl formate, 313.15 K | 0.047
in ethyl formate, 317.65 K | 0.0526
in ethyl formate, 323.15 K | 0.0596
in isobutanol, 273.15 K | 0.00387
in isobutanol, 279.15 K | 0.0045
in isobutanol, 283.85 K | 0.00537
in isobutanol, 289.15 K | 0.00666
in isobutanol, 293.75 K | 0.00808
in isobutanol, 299.15 K | 0.00996
in isobutanol, 303.75 K | 0.012
in isobutanol, 309.15 K | 0.0148
in isobutanol, 313.35 K | 0.0176
in isobutanol, 319.15 K | 0.0214
in isobutanol, 324.45 K | 0.0255
in isopentanol, 273.15 K | 0.00419
in isopentanol, 279.15 K | 0.00488
in isopentanol, 283.85 K | 0.00557
in isopentanol, 289.15 K | 0.00683
in isopentanol, 293.75 K | 0.00804
in isopentanol, 299.15 K | 0.00999
in isopentanol, 303.75 K | 0.0119
in isopentanol, 309.15 K | 0.0148
in isopentanol, 313.35 K | 0.0172
in isopentanol, 319.15 K | 0.021
in isopentanol, 324.45 K | 0.0249
in isopropanol, 273.15 K | 0.0076
in isopropanol, 279.15 K | 0.00834
in isopropanol, 283.85 K | 0.00964
in isopropanol, 289.15 K | 0.0119
in isopropanol, 293.75 K | 0.0141
in isopropanol, 299.15 K | 0.0172
in isopropanol, 303.75 K | 0.0213
in isopropanol, 309.15 K | 0.0261
in isopropanol, 313.35 K | 0.0305
in isopropanol, 319.15 K | 0.0371
in isopropanol, 324.45 K | 0.0444
in methanol, 273.15 K | 0.0295
in methanol, 279.15 K | 0.0325
in methanol, 283.45 K | 0.0357
in methanol, 288.95 K | 0.041
in methanol, 293.25 K | 0.046
in methanol, 298.85 K | 0.0536
in methanol, 303.15 K | 0.061
in methanol, 308.15 K | 0.0699
in methanol, 313.15 K | 0.0808
in methanol, 317.65 K | 0.0923
in methanol, 323.15 K | 0.107
in methyl acetate, 273.15 K | 0.0423
in methyl acetate, 279.15 K | 0.0467
in methyl acetate, 283.45 K | 0.0503
in methyl acetate, 288.95 K | 0.0556
in methyl acetate, 293.25 K | 0.0606
in methyl acetate, 298.85 K | 0.0677
in methyl acetate, 303.15 K | 0.0743
in methyl acetate, 308.15 K | 0.0823
in methyl acetate, 313.15 K | 0.0915
in methyl acetate, 317.65 K | 0.101
in methyl acetate, 323.15 K | 0.113
in n-butanol, 273.15 K | 0.00578
in n-butanol, 279.15 K | 0.00679
in n-butanol, 283.85 K | 0.00798
in n-butanol, 289.15 K | 0.00946
in n-butanol, 293.75 K | 0.011
in n-butanol, 299.15 K | 0.0135
in n-butanol, 303.75 K | 0.016
in n-butanol, 309.15 K | 0.0195
in n-butanol, 313.35 K | 0.0226
in n-butanol, 319.15 K | 0.0276
in n-butanol, 324.45 K | 0.0323
in n-pentanol, 273.15 K | 0.00474
in n-pentanol, 279.15 K | 0.00538
in n-pentanol, 283.85 K | 0.00616
in n-pentanol, 289.15 K | 0.00727
in n-pentanol, 293.75 K | 0.00894
in n-pentanol, 299.15 K | 0.0111
in n-pentanol, 303.75 K | 0.0131
in n-pentanol, 309.15 K | 0.0164
in n-pentanol, 313.35 K | 0.0188
in n-pentanol, 319.15 K | 0.0232
in n-pentanol, 324.45 K | 0.0278
in n-propanol, 273.15 K | 0.00806
in n-propanol, 279.15 K | 0.00907
in n-propanol, 283.85 K | 0.0103
in n-propanol, 289.15 K | 0.0122
in n-propanol, 293.75 K | 0.0143
in n-propanol, 299.15 K | 0.0175
in n-propanol, 303.75 K | 0.0208
in n-propanol, 309.15 K | 0.0254
in n-propanol, 313.35 K | 0.0293
in n-propanol, 319.15 K | 0.036
in n-propanol, 324.45 K | 0.0423

From BigSolDB 2.1
